Measured values as given in patent US4868210A, “Antihyperlipidemic and antiatherosclerotic compounds and compositions” (priority 1988, dated 1989).
pIC50: −log10 of the molar value.

Molecular target: T1, acyl-CoA:cholesterol acyltransferase (ACAT) (Oryctolagus cuniculus, UniProt G1SFD9)
T1 construct: tissue preparation containing rabbit intestinal microsomes; from tissue; host or cells: rabbit intestinal microsomes
T1 sequence (G1SFD9 1-524): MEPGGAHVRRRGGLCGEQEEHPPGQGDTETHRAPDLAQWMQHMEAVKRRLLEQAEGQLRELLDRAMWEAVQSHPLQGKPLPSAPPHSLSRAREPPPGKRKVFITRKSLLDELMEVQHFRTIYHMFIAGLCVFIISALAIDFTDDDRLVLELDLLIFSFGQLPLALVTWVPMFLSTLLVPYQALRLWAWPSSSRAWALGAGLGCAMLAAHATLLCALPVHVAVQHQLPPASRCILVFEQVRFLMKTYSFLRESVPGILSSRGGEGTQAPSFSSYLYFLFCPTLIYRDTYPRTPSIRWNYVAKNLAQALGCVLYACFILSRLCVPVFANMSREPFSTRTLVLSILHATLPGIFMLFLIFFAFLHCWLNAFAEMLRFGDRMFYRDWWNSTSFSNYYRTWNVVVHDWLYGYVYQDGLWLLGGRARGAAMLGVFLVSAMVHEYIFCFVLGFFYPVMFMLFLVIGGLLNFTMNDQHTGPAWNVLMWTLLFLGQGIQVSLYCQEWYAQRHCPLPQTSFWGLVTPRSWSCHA
Experiment: In vitro ACAT inhibition (radiolabeled cholesterol oleate formation from radiolabeled oleic acid in rabbit intestinal microsomes)
Format: biochemical
Conditions: concentration required to inhibit 50% the acylation of cholesterol by oleic acid
Experimental: The ability of representative compounds of the present invention to inhibit ACAT was measured using an in vitro test more fully described in Field, F. J. and Salone, R. G., Biochemica et Biophysica 712: 557-570 (1982). The test assesses the ability of a test compound to inhibit the acylation of cholesterol by oleic acid by measuring the amount of radiolabeled cholesterol oleate formed from radiolabeled oleic acid in a tissue preparation containing rabbit intestinal microsomes.

Structure (SMILES) | pIC50
CC(C)c1cccc(C(C)C)c1NC(=O)NCC1c2ccccc2-c2ccccc21 [Example 1, N-[2,6-bis(1-methylethyl)phenyl]-N'-(9H-fluoren-9-ylmethyl)urea] | 7.57
CC(C)c1cccc(C(C)C)c1NC(=O)NC1CCOc2ccccc2C1 (stereo not shown) [Example 8, N-[2,6-bis(1-methylethyl)phenyl]-N'-(2,3,4,5-tetrahydrobenzoxepin-4-yl)urea] | 7.28
CC(C)c1cccc(C(C)C)c1NC(=O)NC1CCc2ccccc2C1 (stereo not shown) [Example 9, N-[2,6-bis(1-methylethyl)phenyl]-N'-(1,2,3,4-tetrahydro-2-naphthalenyl)urea] | 7.39
CC(C)c1cccc(C(C)C)c1NC(=O)NC1COc2ccccc2C1 (stereo not shown) [Example 10, N-[2,6-bis(1-methylethyl)phenyl]-N'-(3,4-dihydro-2H-1-benzopyran-3-yl)urea] | 7.00
COc1ccc2c(c1)CC(CNC(=O)Nc1c(C(C)C)cccc1C(C)C)CC2 (stereo not shown) [Example 11, N-[2,6-bis(1-methylethyl)phenyl]-N'-[(1,2,3,4-tetrahydro-7-methoxy-2-naphthalenyl)methyl]urea] | 7.08
Cc1cccc(C)c1NC(=O)NC1CC(C)(C)c2ccccc2C1(C)C (stereo not shown) [Example 12, N-(2,6-dimethylphenyl)-N'-(1,2,3,4-tetrahydro-1,1,4,4-tetramethyl-2-naphthalenyl)urea] | 6.57
CC(C)c1cccc(C(C)C)c1NC(=O)NC1CC(C)(C)c2ccccc2C1(C)C (stereo not shown) [Example 13, N-[2,6-bis(1-methylethyl)phenyl]-N'-(1,2,3,4-tetrahydro-1,1,4,4-tetramethyl-2-naphthalenyl)urea] | 7.05
